Measured values: US12624007B2, “Naphthalimide sulfonate derivative, and photoacid generator and photoresist composition which comprise same” (SAMYANG CORPORATION, priority 2020, dated 2026)

Assays:
[1] = Thermal stability by thermogravimetric analyzer (5% weight loss temperature); assay type: physicochemical
From the text: Measurement of Thermal Stability
If a photoacid generator is thermally stable in a photoresist preparation process, a very good effect in terms of stability can be expected.

[2] = Measurement of solubility of photoacid generators in photoresist solvents; conditions: for Solubility PGMEA: solvent PGMEA; for Solubility Cyclohexane: solvent cyclohexane

SMILES	Temperature at which 5% weight loss occurred [1] [°C]	Solubility PGMEA [2]	Solubility Cyclohexane [2]
CC(C)(C)c1cc2c3c(ccc(CC4CCCCC4)c3c1)C(=O)N(OS(=O)(=O)C(F)(F)F)C2=O [Compound 19]	236	11.0 w/v; %	31.2 w/v; %
O=C1c2cccc3cccc(c23)C(=O)N1OS(=O)(=O)C(F)(F)F [Formula V, reference compound]	223		
O=C1c2cccc3c(CC4CCCCC4)ccc(c23)C(=O)N1OS(=O)(=O)C(F)(F)F [Compound 5]	252	3.1 w/v; %	7.8 w/v; %
O=C1c2cccc3c(CC4CC4)ccc(c23)C(=O)N1OS(=O)(=O)C(F)(F)F [Compound 1, 4-cyclopropanemethyl-naphthalimide trifluoromethane sulfonate]	242	9.2 w/v; %	26.1 w/v; %
O=C1c2cccc3c(CCCC4CCCC4)ccc(c23)C(=O)N1OS(=O)(=O)C(F)(F)F [Compound 9]	258	6.3 w/v; %	21.3 w/v; %
